Measurements reported in the NIST ThermoML archive (doi:10.1016/j.jct.2013.09.017).
± gives the expanded uncertainty stated by the source.

Assay: xn = mol fraction of the nth substance listed
Settings: 101 kPa, Liquid; for viscosity: Capillary tube (Ostwald / Ubbelohde) method; for mass density: Vibrating tube method

CCCCCCCCN(CCCCCCCC)CCCCCCCC [trioctylamine] + CCCCCCC
Settings	mass density, 283.15 K [kg/m3]	mass density, 293.15 K [kg/m3]	mass density, 303.15 K [kg/m3]	viscosity, 283.15 K [mPa·s]	viscosity, 293.15 K [mPa·s]	viscosity, 303.15 K [mPa·s]
x1 = 0.0102	696.37 ± 0.26	688.04 ± 0.26	679.6 ± 0.26	0.494 ± 0.011	0.44 ± 0.01	0.394 ± 0.009
x1 = 0.103	726.07 ± 0.27	718.22 ± 0.27	710.29 ± 0.27	0.856 ± 0.019	0.738 ± 0.016	0.642 ± 0.014
x1 = 0.2636	759.83 ± 0.31	752.47 ± 0.31	745.07 ± 0.31	1.827 ± 0.04	1.51 ± 0.033	1.269 ± 0.028
x1 = 0.3223	768.63 ± 0.33	761.41 ± 0.33	754.13 ± 0.33	2.321 ± 0.051	1.899 ± 0.042	1.569 ± 0.035
x1 = 0.409	779.4 ± 0.36	772.31 ± 0.36	765.19 ± 0.36	3.241 ± 0.072	2.57 ± 0.057	2.055 ± 0.046
x1 = 0.5079	789.24 ± 0.4	782.28 ± 0.39	775.31 ± 0.39	4.499 ± 0.1	3.464 ± 0.078	2.734 ± 0.062
x1 = 0.5997	796.55 ± 0.44	789.72 ± 0.43	782.85 ± 0.43	5.814 ± 0.13	4.377 ± 0.1	3.374 ± 0.077
x1 = 0.7019	803.32 ± 0.48	796.55 ± 0.48	789.77 ± 0.48	7.438 ± 0.17	5.434 ± 0.13	4.107 ± 0.095
x1 = 0.8063	808.97 ± 0.53	802.27 ± 0.53	795.57 ± 0.53	9.477 ± 0.22	6.792 ± 0.16	5 ± 0.12
x1 = 0.906	813.43 ± 0.59	806.79 ± 0.58	800.15 ± 0.58	11.64 ± 0.27	8.231 ± 0.19	5.972 ± 0.14
x1 = 1	817.08 ± 0.64	810.48 ± 0.64	803.88 ± 0.63	14.25 ± 0.34	9.957 ± 0.24	7.114 ± 0.17
